These results are taken from PMC12913230, “Investigating the Ligand‐Binding Properties of N‐arylbenzimidazoles as Novel Elastase Inhibitors” (Chemmedchem, 2025).

Each structure is given as a SMILES string.

Data set [1] has as its target T1, porcine pancreatic elastase (PPE) (Sus scrofa, UniProt P00772).
T1 construct: purchased Merck Sigma Aldrich (Milano, Italy)
The data set can be described thus: Elastase inhibition assay with SANA substrate. Conditions: for %I @50 μM / mode of inhibition (Lineweaver–Burk plot) / IC50: PPE; for %I @50 μM: 50 µM compound, SANA substrate, mean ± SD, n = 3; for mode of inhibition (Lineweaver–Burk plot): SANA as substrate; for IC50: SANA substrate 1.6 mM, Tris-HCl pH 8.0; for Ki: binding with the free enzyme, secondary plot of Lineweaver–Burk slopes, SANA 0.5-1.5 mM, read-out: inhibition constant (Ki). The class given is biochemical. Here is the method:
The inhibition mechanism was assessed using Lineweaver–Burk plot analysis.
Elastase inhibition was determined using the substrate N‐succ‐(Ala)3‐nitroanilide (SANA) as previously described.^[ [27] ^] The assay was performed in 0.1 M Tris‐HCl buffer (pH 8.0). PPE (3.3 µg mL^−1) was incubated with or without the compound for 20 min, and after incubation, the substrate (1.6 mM) was added. The release of p‐nitroaniline during cleavage of the substrate SANA by the enzyme activity was monitored at 410 nm. The control was performed with DMSO, while oleanolic acid was used as a positive control. […] The mode of inhibition on the enzyme was performed using the Lineweaver–Burk plot. Different concentrations of SANA (0.5, 0.75, 1.0, and 1.5 mM) were used for the assay. All reagents were purchased from “Merck Sigma Aldrich” (Milano, Italy).

Data set [2] can be described thus: Relative lipophilicity by reverse-phase TLC (RM). The class given is physicochemical. Conditions: RP-TLC C18, acetone–water 2/1 v/v, 25 °C, RM = log[(1/RF) − 1]. Here is the method: In addition, we assessed the relative lipophilicity of the investigated compounds using the reverse‐phase thin layer chromatography (RP‐TLC), following the procedure detailed in Experimental Section. Based on retention factor (R F), we obtained the corresponding R M values for the homogenous series of compounds 1–9. The applied methodology is described in detail in the Experimental Section.
The experimental determination of relative lipophilicity was carried out using reversed‐phase thin‐layer chromatography (20 × 20 cm plates coated with C18 silica RP18 F254, E. Merck, Darmstadt, Germany). A binary solvent system consisting of acetone–water (2/1, v/v) served as the mobile phase. Compounds 1–9 were prepared in methanol to obtain a concentration of 2.0 mg/mL; from these working solutions, a volume of 0.2 μL was spotted on the plate, which was dried at 105 °C for 1 h before use. The chromatograms were developed to a distance of 10 cm from the origin in ascending TLC chambers and developed at 25 °C. After development, compound spots were visualized under UV light at 254 nm. Each determination was performed as triplicate 3 by spotting the compounds on the plate in distinct position; therefore, each RF value resulted as a mean value obtained in triplicate.

The target in data set [3] is T1, porcine pancreatic elastase (PPE). More on the design: method as in PMID 39456954. To be noted: PPE active site; cited from earlier work.

T1 sequence (P00772 27-266): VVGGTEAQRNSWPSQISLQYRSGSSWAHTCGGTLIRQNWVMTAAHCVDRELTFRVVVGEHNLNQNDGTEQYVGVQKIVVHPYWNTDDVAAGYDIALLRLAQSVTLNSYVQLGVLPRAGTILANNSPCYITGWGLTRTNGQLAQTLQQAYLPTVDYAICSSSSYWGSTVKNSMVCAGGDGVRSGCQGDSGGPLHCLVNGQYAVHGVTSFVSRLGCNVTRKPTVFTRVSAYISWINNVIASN

As for `Cc1cc(C)cc(Cn2c(SCC(=O)Nc3ccccc3Cl)nc3ccccc32)c1` [Compound 2, N‐(2‐Chlorophenyl)‐2‐(1‐(3,5‐dimethylbenzyl)‐1H‐benzo[d]imidazol‐2‐ylthio)acetamide], in data set [1], the “%I @50 μM” value worked out at 29.1 ± 2.3%. Besides, the “RM (relative lipophilicity)” value in data set [2] was found to be 0.971.

`Cc1cc(C)cc(Cn2c(SCC(=O)Nc3ccc(C)cc3Cl)nc3ccccc32)c1` [Compound 1, N‐(2‐chloro‐4‐methylphenyl)‐2‐[[1‐[(3,5‐dimethylphenyl)methyl]‐1H‐benzimidazol‐2‐yl]thio]acetamide]: the mode of inhibition result in data set [3] was “reversible competitive inhibitor”. The “%I @50 μM” value in data set [1] amounted to 30.0 ± 2.1%. Also, in data set [2], the “RM (relative lipophilicity)” value is recorded as 1.023.

In the case of `Cc1cc(C)cc(Cn2c(SCC(=O)Nc3ccc(S(C)(=O)=O)cc3Cl)nc3ccccc32)c1` [Compound 4, N‐(2‐Chloro‐4‐(methylsulfonyl)phenyl)‐2‐(1‐(3,5‐dimethylbenzyl)‐1H‐benzo[d]imidazol‐2‐ylthio)acetamide], the “%I @50 μM” value in data set [1] turned out to be 17.3 ± 0.7%. Further, in data set [2], the “RM (relative lipophilicity)” value is given as 0.678.

On to `Cc1cc(C)cc(Cn2c(SCC(=O)Nc3ccccc3Br)nc3ccccc32)c1` [Compound 3, N‐(2‐Bromophenyl)‐2‐(1‐(3,5‐dimethylbenzyl)‐1H‐benzo[d]imidazol‐2‐ylthio)acetamide], for which the “%I @50 μM” value in data set [1] is given as 26.5 ± 0.4%. In data set [2], the “RM (relative lipophilicity)” value is reported as 0.938.

`Cc1cc(C)cc(Cn2c(SCC(=O)Nc3ccccc3Cl)nc3ccc(Cl)cc32)c1` [Compound 6, 2‐(6‐Chloro‐1‐(3,5‐dimethylbenzyl)‐1H‐benzo[d]imidazol‐2‐ylthio)‐N‐(2‐chlorophenyl)acetamide]: in data set [1], the “%I @50 μM” value came to 57.4 ± 2.6%, the “mode of inhibition (Lineweaver–Burk plot)” value was “competitive”, 44.8 ± 1.4 µM corresponded to half-maximal inhibition (IC50) and the Ki was 25.8 µM. Besides, the “RM (relative lipophilicity)” value in data set [2] is recorded as 1.221.

Consider `Cc1cc(C)cc(Cn2c(SCC(=O)Nc3ccc(S(C)(=O)=O)cc3Cl)nc3ccc(Cl)cc32)c1` [Compound 9, 2‐(6‐Chloro‐1‐(3,5‐dimethylbenzyl)‐1H‐benzo[d]imidazol‐2‐ylthio)‐N‐(2‐chloro‐4‐(methylsulfonyl)phenyl)acetamide], for which the “%I @50 μM” value in data set [1] is 31.0 ± 0.6%. Besides, the “RM (relative lipophilicity)” value in data set [2] came out at 1.023.

For `Cc1cc(C)cc(Cn2c(SCC(=O)Nc3ccc(S(N)(=O)=O)cc3Cl)nc3ccccc32)c1` [Compound 5, N‐(2‐Chloro‐4‐sulfamoylphenyl)‐2‐(1‐(3,5‐dimethylbenzyl)‐1‐benzo[d]imidazol‐2‐ylthio)acetamide], in data set [1], the “%I @50 μM” value was found to be 19.3 ± 0.9%. Also, the “RM (relative lipophilicity)” value in data set [2] was found to be 0.558.

`Cc1cc(C)cc(Cn2c(SCC(=O)Nc3ccccc3Br)nc3ccc(Cl)cc32)c1` [Compound 7, N‐(2‐Bromophenyl)‐2‐(6‐chloro‐1‐(3,5‐dimethylbenzyl)‐1H‐benzo[d]imidazol‐2‐ylthio)acetamide]: in data set [1], the “%I @50 μM” value was found to be 62.2 ± 2.1%, the “mode of inhibition (Lineweaver–Burk plot)” value is “competitive”, the IC50 was 41.1 ± 1.9 µM and the Ki worked out at 21 µM. Also, the “RM (relative lipophilicity)” value in data set [2] worked out at 1.195.

Take `Cc1cc(C)cc(Cn2c(SCC(=O)Nc3ccc(C)cc3Cl)nc3ccc(Cl)cc32)c1` [Compound 8, 2‐(6‐chloro‐1‐(3,5‐dimethylbenzyl)‐1H‐benzo[d]imidazol‐2‐ylthio)‐N‐(2‐chloro‐4‐methylphenyl)acetamide]: in data set [1], the “%I @50 μM” value is 40.6 ± 0.7%. The “RM (relative lipophilicity)” value in data set [2] was 1.121.
